Consider six compounds from ChEMBL document CHEMBL1137303, “Progressive docking: a hybrid QSAR/docking approach for accelerating in silico high throughput screening” (J Med Chem, 2006).

The term IC50 denotes the concentration that gives 50% inhibition.

The target in the first experiment is T1, Sex hormone-binding globulin (Homo sapiens) (UniProt P04278).
T1 sequence (whole entry): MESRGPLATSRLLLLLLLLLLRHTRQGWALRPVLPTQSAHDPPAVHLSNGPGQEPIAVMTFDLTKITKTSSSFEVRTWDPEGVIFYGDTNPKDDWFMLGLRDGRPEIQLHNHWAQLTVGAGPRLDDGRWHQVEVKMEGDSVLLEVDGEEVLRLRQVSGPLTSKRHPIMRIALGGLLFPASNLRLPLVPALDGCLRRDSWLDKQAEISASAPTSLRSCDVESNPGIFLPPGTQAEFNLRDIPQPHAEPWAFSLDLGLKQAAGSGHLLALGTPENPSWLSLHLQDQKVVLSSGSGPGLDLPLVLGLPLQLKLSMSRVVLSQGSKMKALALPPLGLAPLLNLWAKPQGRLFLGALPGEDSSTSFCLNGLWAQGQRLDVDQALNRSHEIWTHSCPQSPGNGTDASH
Put plainly: Displacement of [3H]DHT from human SHBG relative to testosterone. In general terms: Loss of bound radioactivity is the signal in a displacement assay; it reports binding, not function.
`CCCC1c2ccc(O)cc2CC1c1ccc(O)cc1` (stereo not given) gave a relative binding affinity (RBA) of 768.

For `CCC(c1ccc(O)c(O)c1)C(CC)c1ccc(O)c(F)c1` (stereo not given), the relative binding affinity (RBA) came out at 714. Still for that read-out and setting: with `CC12CCNC(=O)C=C1CCC1C2CCC2(C)C(O)CCC12` (stereo not given) the figure was 66; with `C[C@]12CC[C@@H]3c4ccc(O)cc4CC[C@H]3[C@@H]1CC[C@@H]2O`, 3.5. The same measure, in the same setting: the same measure for `Cc1cc(Cc2cc(C)c(O)c(CO)c2)cc(CO)c1O`: 3330.

Another experiment deals with T2, Sex hormone-binding globulin (Homo sapiens, UniProt P04278).
T2 sequence (P04278 whole entry): T1 sequence (whole entry)
The experiment in a line: Displacement of [3H]DHT from human SHBG.
Compound `CCCC1c2ccc(O)cc2CC1c1ccc(O)cc1` (stereo not given) showed an IC50 of 11.1 µM.

`CCC(c1ccc(O)c(O)c1)C(CC)c1ccc(O)c(F)c1` (stereo not given): the IC50 was found to be 10.3 µM. The compound `C[C@]12CC[C@H]3[C@@H](CCC4=CC(=O)CC[C@@]43C)[C@@H]1CC[C@@H]2O` [TESTOSTERONE] displayed an IC50 of 0.014 µM.

Compound `CC12CCNC(=O)C=C1CCC1C2CCC2(C)C(O)CCC12` (stereo not given) returned an IC50 of 0.95 µM. Same read-out and setting: the same measure for `Cc1cc(Cc2cc(C)c(O)c(CO)c2)cc(CO)c1O`: 48.2 µM.
